Source: patent publication US20260200890A1, “ADAR1 INHIBITORS AND METHODS OF USING THE SAME” (AVAMMUNE THERAPEUTICS INC., priority 2022, published 2026)

Target: T1, ADAR1 (Homo sapiens, UniProt P55265)
T1 construct: endogenous in cells; host or cells: p110 KO A549 dual cells
T1 sequence (P55265 1-1226): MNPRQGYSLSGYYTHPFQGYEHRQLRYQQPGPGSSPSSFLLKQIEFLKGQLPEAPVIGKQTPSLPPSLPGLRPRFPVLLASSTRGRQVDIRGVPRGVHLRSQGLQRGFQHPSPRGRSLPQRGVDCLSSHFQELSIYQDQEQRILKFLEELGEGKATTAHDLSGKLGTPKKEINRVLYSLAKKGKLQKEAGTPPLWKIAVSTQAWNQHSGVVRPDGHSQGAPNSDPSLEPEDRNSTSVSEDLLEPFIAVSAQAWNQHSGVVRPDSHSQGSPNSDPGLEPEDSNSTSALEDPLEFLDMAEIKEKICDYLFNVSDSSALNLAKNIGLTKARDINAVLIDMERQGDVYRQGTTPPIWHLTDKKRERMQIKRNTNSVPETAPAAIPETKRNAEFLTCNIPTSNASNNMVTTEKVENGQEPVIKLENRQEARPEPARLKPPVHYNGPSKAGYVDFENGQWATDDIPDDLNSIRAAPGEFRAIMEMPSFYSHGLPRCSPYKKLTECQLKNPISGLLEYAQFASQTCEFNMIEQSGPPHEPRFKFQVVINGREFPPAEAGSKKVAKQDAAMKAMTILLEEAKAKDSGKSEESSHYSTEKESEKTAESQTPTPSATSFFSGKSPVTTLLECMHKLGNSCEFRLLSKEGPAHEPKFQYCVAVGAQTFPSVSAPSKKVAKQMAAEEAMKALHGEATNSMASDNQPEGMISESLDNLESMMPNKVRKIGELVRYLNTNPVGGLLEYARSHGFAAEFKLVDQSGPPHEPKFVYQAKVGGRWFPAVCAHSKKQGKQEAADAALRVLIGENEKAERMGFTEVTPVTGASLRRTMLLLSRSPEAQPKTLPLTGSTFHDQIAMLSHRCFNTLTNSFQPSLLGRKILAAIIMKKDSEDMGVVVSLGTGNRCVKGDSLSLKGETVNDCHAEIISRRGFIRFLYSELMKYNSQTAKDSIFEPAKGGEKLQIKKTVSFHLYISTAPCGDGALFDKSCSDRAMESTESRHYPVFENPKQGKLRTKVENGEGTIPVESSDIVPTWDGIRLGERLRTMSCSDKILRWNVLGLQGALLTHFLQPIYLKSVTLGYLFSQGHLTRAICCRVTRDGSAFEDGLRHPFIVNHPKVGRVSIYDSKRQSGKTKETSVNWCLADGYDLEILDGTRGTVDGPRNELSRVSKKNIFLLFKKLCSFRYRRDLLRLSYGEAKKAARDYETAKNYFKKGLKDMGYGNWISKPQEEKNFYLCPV
Test: ADAR1 Inhibition Assay (IFN fold-induction, Quanti-Luc luminescence, p110 KO A549 dual cells)
Type: cell-based
Conditions: IFN fold-induction vs DMSO, 24 and 48 h
Protocol: An ADAR1 Inhibition Assay was used to determine the biological activity (EC50) of compounds disclosed herein. 100 μL of p110 KO A549 dual cell suspension in supplemented DMEM (20,000 cells per well) was added into a flat bottom 96 well plate. Next day, post media change, 180 μL of supplemented DMEM was added. 20 μL of test compound or positive control was added to the respective wells (Final concentration of DMSO is 1%). The plate was incubated for 24 and 48 hours at 37° C. in a 5% CO2 incubator. After 24 and 48 h, 20 μL of cell suspension was taken in black well plates and 50 μL of Quanti-Luc was added to each well and luminescence was measured using a microplate reader (Spectra Max). IFN fold-induction was plotted considering DMSO as control using the relative luminescence unit (RLU) values. (Fold induction: Sample RLU/Average DMSO RLU).

SMILES	EC50 [µM]
CCOC(=O)c1cc(-c2ccccc2)sc1NC(=O)C1CC2(CC2)CN1C(=O)c1cccc(NS(C)(=O)=O)c1 (centres unmarked) [Compound 148]	> 100
CCOC(=O)c1cc(-c2ccccc2)sc1NC(=O)/C=C/c1cccc(NS(C)(=O)=O)c1 [Compound 149]	> 100
CCOC(=O)c1cc(-c2ccccc2)sc1NC(=O)CN(C)C(=O)c1cccc(NS(C)(=O)=O)c1 [Compound 151]	> 100
CCOC(=O)c1cc(-c2ccccc2)sc1NC(=O)C1CCCN(C(=O)c2cccc(NS(C)(=O)=O)c2)C1 (centres unmarked) [Compound 152]	> 100
CS(=O)(=O)Nc1cccc(C(=O)OCC(=O)Nc2nnc(-c3ccccc3)s2)c1 [Compound 153]	≤ 25
CS(=O)(=O)Nc1cccc(C(=O)OCC(=O)Nc2sc(-c3ccccc3)cc2C(=O)O)c1 [Compound 154]	> 100
CCOC(=O)c1cc(-c2ccccc2)sc1NC(=O)CN(C(=O)c1cccc(NS(C)(=O)=O)c1)C1CC1 [Compound 155]	> 100
CCOC(=O)c1cc(-c2ccccc2)sc1NC(=O)[C@H]1CCN(C(=O)c2cccc(NS(C)(=O)=O)c2)C1 [Compound 156]	≤ 25
CCOC(=O)c1cc(-c2ccccc2)sc1NC(=O)[C@H]1CCN(C(=O)c2cccc(NS(C)(=O)=O)c2)C1 [Compound 157]	> 100
CCOC(=O)c1cc(-c2ccccc2)sc1NC(=O)C1CCN(C(=O)c2cccc(NS(=O)(=O)N3CCOCC3)c2)C1 (centres unmarked) [Compound 158]	> 100
CCOC(=O)c1cc(-c2cc[nH]n2)sc1NC(=O)COC(=O)c1cccc(NS(C)(=O)=O)c1 [Compound 159]	> 100
CCOC(=O)c1cc(-c2ccccc2)sc1NC(=O)COC1CCN(S(C)(=O)=O)CC1 [Compound 160]	> 100
CCOC(=O)c1cc(-c2ccccc2)sc1NC(=O)CN(C(=O)c1cccc(NS(C)(=O)=O)c1)C(C)C [Compound 162]	> 100
CCOC(=O)c1cc(-c2ccccc2)sc1NC(=O)CC1CCN(C(=O)c2cccc(NS(C)(=O)=O)c2)CC1 [Compound 164]	> 100
CCOC(=O)c1cc(-c2ccccc2)sc1NC(=O)CCc1cccc(NS(C)(=O)=O)c1 [Compound 165]	> 100
CCOC(=O)c1cc(-c2ccccc2)sc1NC(=O)COC(=O)Nc1cccc(NS(C)(=O)=O)c1 [Compound 166]	> 100
CCOC(=O)c1cc(-c2ccccc2)sc1NC(=O)N1CCN(C(=O)c2cccc(NS(C)(=O)=O)c2)CC1 [Compound 167]	> 100
CCOC(=O)c1cc(-c2ccccc2)sc1NC(=O)C1CCN(C(=O)c2cccc(NS(C)(=O)=O)c2)CC1 [Compound 168]	> 100
CCOC(=O)c1cc(-c2ccccc2)sc1NC(=O)CCNc1cccc(NS(C)(=O)=O)c1 [Compound 169]	> 100
CCOC(=O)c1cc(-c2ccncc2)sc1NC(=O)COC(=O)c1cccc(NS(C)(=O)=O)c1 [Compound 170]	> 100
CS(=O)(=O)Nc1cccc(C(=O)N2CCC(C(=O)Nc3nnc(-c4ccccc4)s3)C2)c1 (centres unmarked) [Compound 173]	> 100
CCOC(=O)c1cc(-c2ccccc2)sc1NC(=O)COC(=O)c1cccc(S(C)(=N)=O)c1 (centres unmarked) [Compound 174]	> 100
CCOC(=O)c1cc(-c2ccccc2)sc1NC(=O)Cn1cnc2c(N)ncnc21 [Compound 176]	> 100
CCOC(=O)c1cc(-c2ccccc2)sc1NC(=O)COC(=O)c1cccc(CNS(C)(=O)=O)c1 [Compound 177]	> 100
CCOC(=O)c1cc(-c2ccccc2)sc1NC(=O)COC(=O)N1CCN(S(C)(=O)=O)CC1 [Compound 178]	> 100
CCOC(=O)c1cc(-c2ccccc2)sc1NC(=O)COCc1cccc(N(S(C)(=O)=O)S(C)(=O)=O)c1 [Compound 179]	> 100
CCOC(=O)c1cc(-c2ccccc2)sc1NC(=O)Cn1cc(-c2cccc(NS(C)(=O)=O)c2)nn1 [Compound 181]	> 100

SMILES	EC50 [µM]
CCOC(=O)c1cc(-c2ccccc2)sc1NC(=O)Cn1nncc1-c1cccc(NS(C)(=O)=O)c1 [Compound 182]	> 100
CCOC(=O)c1cc(-c2ccccc2)sc1NC(=O)COC(=O)c1cccc(NS(C)(=O)=O)n1 [Compound 183]	> 100
CCOC(=O)c1cc(-c2ccccc2)sc1NC(=O)C1CCN(Cc2cccc(NS(C)(=O)=O)c2)C1 (centres unmarked) [Compound 184]	> 100
CS(=O)(=O)Nc1cccc(C(=O)OCC(=O)Nc2nnc(-c3ccccc3)o2)c1 [Compound 185]	> 100
CN(C)C(=O)c1cc(-c2ccccc2)sc1NC(=O)COC(=O)c1cccc(NS(C)(=O)=O)c1 [Compound 186]	> 100
CCOC(=O)c1cc(-c2ccccc2)sc1NC(=O)COC(=O)c1cccc(N)c1 [Compound 187]	> 100
CCOC(=O)c1cc(-c2ccccc2F)sc1NC(=O)COC(=O)c1cccc(NS(C)(=O)=O)c1 [Compound 188]	> 100
CCOC(=O)c1cc(-c2ccccc2)ncc1NC(=O)COC(=O)c1cccc(NS(C)(=O)=O)c1 [Compound 189]	≤ 25
CCOC(=O)c1c(NC(=O)COC(=O)c2cccc(NS(C)(=O)=O)c2)sc(-c2ccccc2)c1C [Compound 190]	> 100
COC(=O)c1cc(-c2ccccc2)sc1NC(=O)COC(=O)c1cccc(NS(C)(=O)=O)c1 [Compound 191]	> 100
CCOC(=O)c1cc(-c2cccc(C)c2)sc1NC(=O)COC(=O)c1cccc(NS(C)(=O)=O)c1 [Compound 192]	> 100
CCOC(=O)c1cc(-c2ccccc2)sc1NC(=O)COC(=O)c1cccc(S(=O)(=O)NC(=O)CC)c1 [Compound 193]	> 100
CS(=O)(=O)Nc1cccc(NC(=O)CSc2nc(N)nc3nc[nH]c23)c1 [Compound 194]	> 100
CCOC(=O)c1cc(-c2ccccc2)sc1NC(=O)C(C)OC(=O)c1cccc(NS(C)(=O)=O)c1 (centres unmarked) [Compound 195]	> 100
CCOC(=O)c1cc(Cc2ccccc2)sc1NC(=O)COC(=O)c1cccc(NS(C)(=O)=O)c1 [Compound 196]	> 100
CCOC(=O)c1cc(-c2ccccc2C#N)sc1NC(=O)COC(=O)c1cccc(NS(C)(=O)=O)c1 [Compound 197]	> 100
CCOC(=O)c1cc(-c2ccc(N3CCNCC3)cc2)sc1NC(=O)COC(=O)c1cccc(NS(C)(=O)=O)c1 [Compound 198]	> 100
CCOC(=O)c1cc(-c2ccccc2)sc1NC(=O)COC(=O)c1cccc(N(C)C)c1 [Compound 199]	> 100
CS(=O)(=O)Nc1cccc(C(=O)OCC(=O)n2cnc3cnc(N)nc32)c1 [Compound 200]	> 100
CCOC(=O)c1cc(-c2ccccc2OC(F)(F)F)sc1NC(=O)COC(=O)c1cccc(NS(C)(=O)=O)c1 [Compound 201]	> 100
CCOC(=O)c1cc(-c2cccc(OC(F)(F)F)c2)sc1NC(=O)COC(=O)c1cccc(NS(C)(=O)=O)c1 [Compound 202]	> 100
CC(C)(C)OC(=O)COC(=O)c1cc(-c2ccccc2)sc1NC(=O)COC(=O)c1cccc(NS(C)(=O)=O)c1 [Compound 203]	> 100
CCOC(=O)c1cc(C)sc1NC(=O)COC(=O)c1cccc(NS(C)(=O)=O)c1 [Compound 204]	> 100
CCOC(=O)c1cc(-c2ccc(OC)cc2)sc1NC(=O)COC(=O)c1cccc(NS(C)(=O)=O)c1 [Compound 205]	> 100
CCOC(=O)c1nc(-c2ccccc2)sc1NC(=O)C1CCN(C(=O)c2cccc(NS(C)(=O)=O)c2)C1 (centres unmarked) [Compound 206]	> 100
CCOC(=O)c1cc(-c2ccccc2)sc1NC(=O)COCc1cccc(NS(C)(=O)=O)c1 [Compound 207]	> 100
